Where “and” joins values, the source holds several entries; their conditions need not be identical. Equal values may be shown once.
Tests used:
[1] = system: 293 GCC#2 tumor xenograft; experiment: 5F9 vcMMAE single agent efficacy in 293 GCC#2 xenograft (Example 5); format: in vivo, SCID mice; conditions: dose 1.875-7.5 mg/kg, QW, T/C=volume of tumor/control
[2] = system: PHTX-21c s.c. xenograft; experiment: MLN0264 and CPT-11 in PHTX-21C s.c. xenografts (Study CPGC-11-EF04)
Method: (§1) The endpoints for each treatment group was either a) tumor volume reaches 10% body weight; or b) body weight loss of >20%. The projected tumor volume at the study initiation date was 200 mm^3.
(§2) Not greater than one day prior to dosing, all animals were weighed to the nearest gram and grouped. Dosing solutions were vortexed prior to each administration to ensure correct delivery of compound. Animals received approximately 0.1 ml doses administered I.V. using a 1 cc syringe, 27-30 gauge, ½-¾ inch in length.
(§3) Tumor volume measurements were obtained twice per week using Vernier calipers (0.01 mm). Tumor volume was calculated using the formula:
(§4) Efficacy was evaluated in terms of % tumor growth inhibition (TGI) and tumor growth delay (TGD). TGI was assessed on an arbitrary day (when the maximum tumor volume (MTV of the control treatment group reaches the maximum allowable tumor volume), using the following formula:
TGD was assessed by calculating T−C, where T=mean time (in days) for treatment group tumors to reach a predetermined size (e.g., 1,000 mm^3), and where C=mean time (in days) for the control group tumors to reach a predetermined size.
(§5) To compare pairs of treatment groups, the following mixed-effects linear regression model was fit to the data using the maximum likelihood method:
(§6) The predicted differences in the log tumor values (Yijk−Yi0k, which can be interpreted as log10 (fold change from day 0)) were taken from the above models to calculate mean AUC values for each treatment group. A dAUC value was then calculated as:
For synergy analyses, the observed differences in the log tumor values were used to calculate AUC values for each animal. […] The AUC for the control, or vehicle, group was calculated using the predicted values from the pairwise models described above.

[3] = system: PHTX-17c primary human mCRC tumor xenograft; experiment: 5F9 vcMMAE single agent efficacy in PHTX-17c; format: in vivo, SCID mice
[4] = system: 293-GCC#2 tumors; experiment: PK/PD study (phospho-histone H3) in 293-GCC#2 tumor bearing mice; format: in vivo
From the text: Phospho-histone H3 was detected by antibody (Upstate Biotechnology, now Millipore, Billerica, Mass.) staining of paraffin embedded sections of tumors.

[5] = system: PHTX-9c primary human colon tumor xenograft; experiment: Single agent antitumor activity in PHTX-9c (PHTX-09c) primary human colon tumor xenograft
Method: Female CB-17 SCID mice (eight weeks old) were inoculated subcutaneously (SC) into the flank with PHTX-9c tumor fragments (2 mm×2 mm). Tumor growth was monitored twice per week using vernier calipers and the mean tumor volume was calculated using the formula (0.5×[length×width^2]). When the mean tumor volume reached approximately 150 mm^3 (Study A) or 160 mm^3 (Study B), animals were randomized into treatment groups (n=10/group for Study A and n=9/group for Study B).
Doses were administered on Days 1, 8, and 15 for the QW schedule and Days 1, 4, 8, 11, 15, and 18 for the BIW schedule. […] The equivalent dose of linker+MMAE is 4% of the 5F9-vcMMAE dose. These calculations are based on a mean 3.9 MMAE molecules per antibody and a free antibody molecular weight of 150 kD. Actual antibody molecular weight will vary slightly due to degree of glycosylation.
Tumor volume and body weight were measured twice weekly and were continued beyond the treatment period to measure regrowth kinetics, as evidenced by tumor growth delay (TGD). Tumor volume measurements were continued until tumor volume reached 10% of the body weight in a single mouse within a treatment group, at which time the group was terminated. The percentage of tumor growth inhibition (TGI) ([mean tumor volume of the control group—mean tumor volume of a treated group]/mean tumor volume of the control group; a T/C ratio) was determined on Day 20. The T/C ratios across a treatment group were compared to the T/C ratios of the control group using a two-tailed Welch's t-test.
The differences in the tumor growth trends over time between pairs of treatment groups were assessed using linear mixed effects regression models. These models account for the fact that each animal was measured at multiple time points. A separate model was fit for each comparison, and the areas under the curve (AUC) for each treatment group were calculated using the predicted values from the model. The percent decrease in AUC (dAUC) relative to the reference group was then calculated.
The 5F9 vcMMAE immunoconjugate was tested for single agent anti-tumor activity in the four primary human tumor xengraft models at varying concentrations in order to explore whether GCC expression levels played a role in tumor sensitivity. […] Free-MMAE was also used as a negative control.

[6] = system: PHTX-09c s.c. xenograft; experiment: 5F9 vcMMAE and cisplatin in PHTX-09c s.c. xenografts (Study CPGC-11-EF05); conditions: reference vehicle
Method: as §1, §2, §3
Efficacy was evaluated in terms of % tumor growth inhibition (TGI) and tumor growth delay (TGD); the difference in days for treated vs. control tumors to reach final study volume).
TGI was assessed on an arbitrary day (when the maximum tumor volume (“MTV” of the control treatment group reaches the maximum allowable tumor volume), using the following formula:
(§7) TGD was assessed by calculating T−C, where T=mean time (in days) for treatment group tumors to reach a predetermined size, and where C=mean time (in days) for the control group tumors to reach a predetermined size (e.g., 1,000 mm^3).
as §6
For synergy analyses, the observed differences in the log tumor values were used to calculate AUC values for each animal. […] The AUC for the control, or vehicle, group was calculated using the predicted values from the pairwise models described above. A measure of synergy was defined as follows:
where Ak and Bk are the k^th animal in the individual treatment groups and ABk is the k^th animal in combination treatment group. AUCctl is the model-predicted AUC for the control group and was treated as a constant with no variability. The standard error of the synergy score was calculated as the square root of the sum of squared standard errors across groups A, B, and AB. The degrees of freedom were estimated using the Welch-Satterthwaite equation. A hypothesis test was performed to determine if the synergy score differed from 0. P values were calculated by dividing the synergy score by its standard error and tested against a t-distribution (two-tailed) with the above-calculated degrees of freedom.
The effect was classified into four different categories. It was considered synergistic if the synergy score was less than 0, and additive if the synergy score wasn't statistically different from 0.

[7] = system: PHTX-11c s.c. xenograft; experiment: MLN0264 and CPT-11 in PHTX-11c s.c. xenografts (Study CPGC-12-EF01)
From the text: The objective of this study was to explore the combination activity in a model having moderate level of GCC antigen density yet resistance to the immunoconjugate alone.
as §1
Not greater than one day prior to dosing, all animals were weighed to the nearest gram and grouped. Dosing solutions were vortexed prior to each administration to ensure correct delivery of compound. Animals received approximately 0.1 ml doses administered I.V. using a 1 cc syringe, 25-30 gauge, ½-¾ inch in length.
Tumor volume measurements (0.01 mm) were obtained twice per week using Vernier calipers (0.01 mm). Tumor volume was calculated using the formula:
as §4, §7, §5, §6
For synergy analyses, the observed differences in the log tumor values were used to calculate AUC values for each animal. […] The AUC for the control, or vehicle, group was calculated using the predicted values from the pairwise models described above. To address the question of whether the effects of the combination treatments were synergistic, additive, or sub-additive relative to the individual treatments, the following statistics were calculated:
where Ak and Bk are the k^th animal in the individual treatment groups and ABk is the k^th animal in combination treatment group. AUCctl is the model-predicted AUC for the control group and was treated as a constant with no variability. The standard error of the synergy score was calculated as the square root of the sum of squared standard errors across groups A, B, and AB. The degrees of freedom were estimated using the Welch-Satterthwaite equation. P values were calculated by dividing the synergy score by its standard error and tested against a t-distribution (two-tailed) with the above-calculated degrees of freedom.
The effect was classified into four different categories. It was considered synergistic if the synergy score was less than 0 and additive if the synergy score wasn't statistically different from 0. […] Interval analysis, if requested, involved a specified treatment group and time interval compared with another treatment group and time interval. For a given group, time interval, and animal, the tumor growth rate per day was estimated by

[8] = system: PHTX-249 Pa s.c. xenograft; experiment: 5F9 vcMMAE and gemcitabine in PHTX-249 Pa s.c. xenografts (Study CPGC-13-EF05); format: in vivo, CB-17 SCID mice; conditions: group A: MLN0264 7.5 mg/kg QW; reference vehicle
Method: Day D0 was the first day of treatment.
Tumor volume was calculated using the formula: […]
A negative dAUC is interpreted as an increase in AUC relative to the reference. It is important to evaluate not only the P value, but also the dAUC. Comparisons with significant P values, but small dAUC values, may not be of interest.

[9] = system: PHTX-11c primary human mCRC tumor xenograft; experiment: 5F9 vcMMAE single agent efficacy in PHTX-11c; format: in vivo, SCID mice
[10] = PHTX-21c, ML0264 3.75 mg/kg i.v. QW
[11] = Study A, 0.938 mg/kg IV QW × 3 doses
[12] = Study A, 1.875 mg/kg IV QW × 3 doses
[13] = Study A, 3.75 mg/kg IV QW × 3 doses
[14] = Study A, 7.5 mg/kg IV QW × 3 doses
[15] = Study B, 0.938 mg/kg IV QW × 3 doses
[16] = Study B, 1.875 mg/kg IV QW × 3 doses
[17] = Study B, 3.75 mg/kg IV BIW × 6 doses
[18] = Study B, 3.75 mg/kg IV QW × 3 doses
[19] = Study B, 7.5 mg/kg IV QW × 3 doses
[20] = Study B, 10.0 mg/kg IV QW × 3 doses
[21] = MLN0264 7.5 mg/kg QW i.v., W1-W3

Substance: 5F9 vcMMAE: 5F9 mAb conjugated to MMAE using a vc (Val-Cit) linker; average drug loading about 3.6
- T/C [1]: 0.03
- single agent anti-tumor activity ([2]; PHTX-21c, 3.75 mg/kg): relatively low anti-tumor activity
- Days to 1000 mm^3 [2, 10]: >15 days
- Mean tumor volume ± S.E.M (mm3) [2, 10]: 869.1 ± 105.2 mm3
- T/C [2, 10]: 0.64
- TGI [2, 10]: 36.3%
- dAUC ([2]; Treated group A (ML0264 3.75 mg/kg) vs reference V (vehicle)): 25.1%
- single agent sensitivity ([3]; 0.9375 mg/kg-10 mg/kg I.V. QW×3 weeks): Moderate sensitivity
- T/C ([3]; dose 0.938-10 mg/kg, QW, T/C=volume of tumor/control): 0.46
- Average % Tumor cells pH 3 positive ([4]; single iv dose 75 μg/kg, 1 hr): 4.525%
- Average % Tumor cells pH 3 positive ([4]; single iv dose 75 μg/kg, 4 hr): 2.552%
- Average % Tumor cells pH 3 positive ([4]; single iv dose 75 μg/kg, 8 hr): 4.244%
- Average % Tumor cells pH 3 positive ([4]; single iv dose 75 μg/kg, 24 hr): 9.8199%
- Average % Tumor cells pH 3 positive ([4]; single iv dose 75 μg/kg, 48 hr): 8.692%
- Average % Tumor cells pH 3 positive ([4]; single iv dose 75 μg/kg, 96 hr): 8.628%
- Average % Tumor cells pH 3 positive ([4]; single iv dose 150 μg/kg, 1 hr): 3.335%
- Average % Tumor cells pH 3 positive ([4]; single iv dose 150 μg/kg, 4 hr): 2.785%
- Average % Tumor cells pH 3 positive ([4]; single iv dose 150 μg/kg, 8 hr): 4.576%
- Average % Tumor cells pH 3 positive ([4]; single iv dose 150 μg/kg, 24 hr): 13.79%
- Average % Tumor cells pH 3 positive ([4]; single iv dose 150 μg/kg, 48 hr): 14.26%
- Average % Tumor cells pH 3 positive ([4]; single iv dose 150 μg/kg, 96 hr): 14.68%
- day tumors start to re-grow ([5]; PHTX-09c, 7.5 mg/kg and 10 mg/kg): ~40 days
- anti-tumor activity maintained post-dosing ([5]; PHTX-09c, 7.5 mg/kg and 10 mg/kg, last dose on day 15): 3 weeks
- single agent anti-tumor activity ([5]; PHTX-09c, 1.875-10 mg/kg I.V. QW×3 weeks): strong
- T/C ([5]; PHTX-09c, dose 0.938-10 mg/kg, QW, T/C=volume of tumor/control): 0.09
- BW change (mean maximum percent) [5, 11]: 9.0%
- TGD [5, 11]: 3.3 days
- TGI ([5]; Study A, 0.938 mg/kg IV QW × 3 doses, Day 20): 21.4 (p > 0.05) %
- BW change (mean maximum percent) [5, 12]: 10.6%
- TGD [5, 12]: 8.2 days
- TGI ([5]; Study A, 1.875 mg/kg IV QW × 3 doses, Day 20): 44.7 (p > 0.001) %
- BW change (mean maximum percent) [5, 13]: 9.0%
- TGD [5, 13]: 17.8 days
- TGI ([5]; Study A, 3.75 mg/kg IV QW × 3 doses, Day 20): 65.3 (p > 0.001) %
- BW change (mean maximum percent) [5, 14]: 7.5%
- days until first tumor >1000 mm^3 [5, 14]: (>58 days
- TGI ([5]; Study A, 7.5 mg/kg IV QW × 3 doses, Day 20): 84.1 (p > 0.001) %
- BW change (mean maximum percent) [5, 15]: −2.3%
- TGD [5, 15]: 3.8 days
- TGI ([5]; Study B, 0.938 mg/kg IV QW × 3 doses, Day 20): 20.7 (p > 0.001) %
- BW change (mean maximum percent) [5, 16]: 5.6%
- TGD [5, 16]: 6.6 days
- TGI ([5]; Study B, 1.875 mg/kg IV QW × 3 doses, Day 20): 41.3 (p > 0.001) %
- BW change (mean maximum percent) [5, 17]: −1.8%
- TGD [5, 17]: 31.9 days
- TGI ([5]; Study B, 3.75 mg/kg IV BIW × 6 doses, Day 20, 3.75 mg/kg): 84.9 (p > 0.001) %
- BW change (mean maximum percent) [5, 18]: −2.2%
- TGD [5, 18]: 16 days
- TGI ([5]; Study B, 3.75 mg/kg IV QW × 3 doses, Day 20): 65.7 (p > 0.001) %
- BW change (mean maximum percent) [5, 19]: 6.5%
- days until first tumor >1000 mm^3 [5, 19]: (>47 days
- TGI ([5]; Study B, 7.5 mg/kg IV QW × 3 doses, Day 20): 84.3 (p > 0.001) %
- BW change (mean maximum percent) [5, 20]: 7.2%
- days until first tumor >1000 mm^3 [5, 20]: (>56 days
- TGI ([5]; Study B, 10.0 mg/kg IV QW × 3 doses, Day 20, 10 mg/kg): 91.2 (p > 0.001) %
- greatest maximum body weight loss during treatment period ([5]; Study B, day 7, 0.18 mg/kg MMAE group and 0.938 mg/kg 5F9-vcMMAE group): 2.3%
- TGI ([5]; both studies (A and B), 0.938 mg/kg IV QW): 20.7-21.4%
- TGI ([5]; both studies (A and B), 1.875 mg/kg IV QW): 41.3-44.7%
- TGI ([5]; both studies (A and B), 3.75 mg/kg IV QW): 65.3-65.7%
- TGI ([5]; both studies (A and B), 7.5 mg/kg IV QW): 84.1-84.3%
- dAUC ([6]; group A: MLN0264 1.875 mg/kg IV QW x3): 17.8%
- dAUC ([6]; group B: MLN0264 3.75 mg/kg IV QW x3, 3.75 mg/kg): 28.4% and 44.8%
- Days to 1000 mm^3 [7, 21]: 13.5 days
- Mean tumor volume ± S.E.M [7, 21]: 1263.4 ± 115.8 mm3
- T/C [7, 21]: 0.62
- TGD [7, 21]: 4.7 days
- TGI [7, 21]: 37.7%
- single agent anti-tumor activity ([7]; PHTX-11c, 7.5 mg/kg): very low activity
- dAUC ([7]; group A: MLN0264 7.5 mg/kg QW, reference vehicle): 22.6%
- dAUC [8]: 26.4%
- single agent sensitivity ([9]; 1.875-7.5 mg/kg I.V. QW×3 weeks): relatively resistant
- T/C ([9]; dose 1.875-7.5 mg/kg, on BIW): 0.5 on

— patent US20140356383A1, “ADMINISTRATION OF AN ANTI-GCC ANTIBODY-DRUG CONJUGATE AND A DNA DAMAGING AGENT IN THE TREATMENT OF CANCER” (priority 2013, published 2014)
